The text below walks through data of US10351548B2, “2-oxo-1,2-dihydropyridine-3-carboxamide compounds and their use as inhibitors of PDK1” (INTERNATIONAL SOCIETY FOR DRUG DEVELOPMENT S.R.L., priority 2015, dated 2019).

Read-outs that look alike come from different tables or passages of the source.

One assay deals with U87MG cells. In words: U87MG cell proliferation, MTS assay. It counts as cell-based, human. As to conditions: for IC50: Homo sapiens, U-87 MG, 72 h, MTS assay. As to the method:
(§1) The U87MG cell line was obtained from the National Institute for Cancer Research of Genoa (Italy) and cultured in DMEM 10% FBS and 2 mM glutamine. To isolate GSCs, approximately 2.0×10^6 cells were suspended in 1 mL of a defined serum-free Neural Stem Cell (NSC) medium (Daniele, S., et al., Modulation of A1 and A2B adenosine receptor activity: a new strategy to sensitise glioblastoma stem cells to chemotherapy. Cell death & disease, 2014. 5(11): p. e1539). After 3-4 days of culture, the neurospheres were collected, suspended in NSC medium, dissociated into single cells, and plated for the assays. For the long-term treatment of cells, NSC or complete medium containing drugs was replaced every two to three days.
(§2) The human U87MG cells or GSCs were seeded at a density of 3×10^3 cells/well. After 24 h, the cells were treated from one to seven days with fresh growth medium containing different concentrations of SA16, SA23 or IB35. Following the treatment period, cell proliferation was determined using the MTS assay according to manufacturer's instruction. The absorbance of formazan at […] was measured in a colorimetric assay with an automated plate reader (Victor Wallac 2, Perkin Elmer). The results were calculated by subtracting the mean background from the values obtained from each evaluation and were expressed as the percentage of the control (untreated cells). Sigmoid dose-response curve was generated, from which the IC50 values were derived.
As representative GBM cell line, the above U87MG cells were used; this human cell line resulted an appropriate model to study the effects of PDK1 inhibition, because it is deficient for the tumour suppressor phosphatase and tensin homologue (PTEN), a negative regulator of the PI3K/AKT pathway (Wang, S. I., et al., Somatic mutations of PTEN in glioblastoma multiforme. Cancer research, 1997. 57(19): p. 4183-4186). To examine the effects of SA16, SA23 and IB35 on GBM cell growth/survival, U87MG cells were incubated with different concentrations of the new compounds (1 nM-10 μM) for 24 and 72 h. Specifically, U87MG cells were treated in complete medium with different concentrations of SA16, SA23 or IB35 (1 nM-10 μM) for 24 h (A) or 72 h (B). At the end of treatment, cell proliferation was measured using the MTS assay. The data are expressed as a percentage with respect to that of untreated cells (control), which was set to 100%, and are the mean values±SEM of three independent experiments, each performed in duplicate. The significance of the differences reported in FIGS. 1 and 2 was determined with a one-way ANOVA with Bonferroni post-test (* p<0.05, **p<0.01, *** p<0.001 vs. control cells).
Background: Formazan colour is commonly taken as a measure of viable cells.

The subject of assay [1] is GSCs isolated from U87MG cells. The assay can be described thus: GSC proliferation, MTS assay. To be noted: for IC50: Homo sapiens, U-87 MG, 168 h, seven days of treatment, MTS assay; for inhibition of GSC proliferation: starting from four days of treatment. It counts as cell-based, human. As to the method: as §1, §2
The inhibition of PDK1 has been reported as potentially effective therapeutic approach to reduce self-renewal and propagation of GSCs (Signore, M., et al., Combined PDK1 and CHK1 inhibition is required to kill glioblastoma stem-like cells in vitro and in vivo. Cell death & disease, 2014. 5(5): p. e1223). On this basis, the effects of SA16, SA23 and IB35 on GSCs, isolated from U87MG cells as previously reported, were evaluated (Daniele, S., et al., Modulation of A1 and A28 adenosine receptor activity: a new strategy to sensitise glioblastoma stem cells to chemotherapy. Cell death & disease, 2014. 5(11): p. e1539). U87MG-derived GSCs were incubated with the indicated concentrations of IB35, SA23 or SA16 for four days (FIG. 8) or seven days (FIG. 9). At the end of the treatment periods, cell proliferation was measured using the MTS assay. The data were expressed as a percentage with respect to that of untreated cells (control), which was set to 100%, and are the mean values±SEM of three independent experiments, each performed in duplicate. IC50 values after seven days of treatment were calculated from sigmoid dose-response curve (FIG. 9). The significance of the differences was determined with a one-way ANOVA with Bonferroni post-test (** p<0.01, *** p<0.001 vs. control).

The next assay addresses CDK7/cyclin H/MNAT1 (Homo sapiens (Human), UniProt P50613). The assay can be described thus: IB35 kinases profiling at 100 nM (Adapta). It counts as biochemical. To be noted: IB35 100 nM, ATP Km app. An excerpt: (§3) The results are reported below
Assay [2] deals with PIK3CA/PIK3R1 (p110 alpha/p85 alpha) (Homo sapiens (Human), UniProt P42336). In words: IB35 kinases profiling at 100 nM (Adapta). It counts as biochemical. To be noted: IB35 100 nM, ATP Km app.
Sequence of PIK3CA/PIK3R1 (p110 alpha/p85 alpha) (P42336 whole entry): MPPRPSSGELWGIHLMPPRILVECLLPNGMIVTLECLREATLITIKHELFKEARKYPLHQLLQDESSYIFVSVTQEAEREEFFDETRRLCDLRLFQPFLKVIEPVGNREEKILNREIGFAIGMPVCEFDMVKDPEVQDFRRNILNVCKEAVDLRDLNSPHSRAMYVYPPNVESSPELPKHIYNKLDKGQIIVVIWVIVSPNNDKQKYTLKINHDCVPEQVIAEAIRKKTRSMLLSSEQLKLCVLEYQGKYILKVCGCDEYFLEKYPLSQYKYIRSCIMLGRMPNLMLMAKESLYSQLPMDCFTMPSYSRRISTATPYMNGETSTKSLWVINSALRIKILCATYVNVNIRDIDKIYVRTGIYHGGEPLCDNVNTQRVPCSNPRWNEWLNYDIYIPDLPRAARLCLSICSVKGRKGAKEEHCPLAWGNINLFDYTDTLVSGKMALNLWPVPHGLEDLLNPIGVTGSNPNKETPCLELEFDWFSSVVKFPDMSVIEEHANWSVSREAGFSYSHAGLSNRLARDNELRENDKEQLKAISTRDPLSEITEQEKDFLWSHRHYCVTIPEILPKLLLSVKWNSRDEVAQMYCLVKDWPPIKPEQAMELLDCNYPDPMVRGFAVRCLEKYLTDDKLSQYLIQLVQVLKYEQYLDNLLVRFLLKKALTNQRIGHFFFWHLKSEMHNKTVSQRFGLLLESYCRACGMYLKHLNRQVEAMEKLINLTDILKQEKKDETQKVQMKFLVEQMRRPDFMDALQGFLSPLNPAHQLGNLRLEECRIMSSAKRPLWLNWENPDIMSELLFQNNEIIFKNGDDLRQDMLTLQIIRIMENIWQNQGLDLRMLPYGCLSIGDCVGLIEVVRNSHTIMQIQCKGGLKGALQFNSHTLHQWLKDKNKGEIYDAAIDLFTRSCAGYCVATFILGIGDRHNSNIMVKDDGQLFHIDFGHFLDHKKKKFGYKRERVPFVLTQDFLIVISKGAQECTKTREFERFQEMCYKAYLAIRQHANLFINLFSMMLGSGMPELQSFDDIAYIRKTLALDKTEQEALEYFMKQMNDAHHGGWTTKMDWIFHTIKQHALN
Sequence of PIK3CA/PIK3R1 (p110 alpha/p85 alpha) (P27986 whole entry partner): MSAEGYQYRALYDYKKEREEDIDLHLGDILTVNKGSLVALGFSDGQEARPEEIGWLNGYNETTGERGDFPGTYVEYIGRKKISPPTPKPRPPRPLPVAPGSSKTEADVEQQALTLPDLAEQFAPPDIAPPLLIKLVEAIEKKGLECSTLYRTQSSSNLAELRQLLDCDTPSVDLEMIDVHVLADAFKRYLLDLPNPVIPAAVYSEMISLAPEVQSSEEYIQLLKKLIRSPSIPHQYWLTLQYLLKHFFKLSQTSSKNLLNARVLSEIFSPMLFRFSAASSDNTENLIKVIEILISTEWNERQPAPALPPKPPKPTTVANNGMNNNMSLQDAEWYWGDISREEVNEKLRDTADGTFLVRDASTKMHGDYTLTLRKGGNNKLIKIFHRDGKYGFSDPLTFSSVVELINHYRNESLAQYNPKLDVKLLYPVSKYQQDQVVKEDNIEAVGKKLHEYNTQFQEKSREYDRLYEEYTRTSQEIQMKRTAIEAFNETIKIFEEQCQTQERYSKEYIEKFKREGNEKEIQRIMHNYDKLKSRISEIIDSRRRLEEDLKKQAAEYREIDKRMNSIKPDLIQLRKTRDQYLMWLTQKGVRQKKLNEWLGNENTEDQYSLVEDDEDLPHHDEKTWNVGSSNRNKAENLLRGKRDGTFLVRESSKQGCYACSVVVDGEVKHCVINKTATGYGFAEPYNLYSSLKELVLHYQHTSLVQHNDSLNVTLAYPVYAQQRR
From the text: as §3

The next assay has as its target PIK3CG (p110 gamma) (Homo sapiens (Human), UniProt P48736). In words: IB35 kinases profiling at 100 nM (Adapta). It counts as biochemical. To be noted: IB35 100 nM, ATP Km app.
From the text: as §3

The target of the next assay is CHUK (IKK alpha) (Homo sapiens (Human), UniProt O15111). In words: IB35 kinases profiling at 100 nM (Adapta). It counts as biochemical. As to conditions: IB35 100 nM, ATP Km app.
Sequence of CHUK (IKK alpha) (O15111 whole entry): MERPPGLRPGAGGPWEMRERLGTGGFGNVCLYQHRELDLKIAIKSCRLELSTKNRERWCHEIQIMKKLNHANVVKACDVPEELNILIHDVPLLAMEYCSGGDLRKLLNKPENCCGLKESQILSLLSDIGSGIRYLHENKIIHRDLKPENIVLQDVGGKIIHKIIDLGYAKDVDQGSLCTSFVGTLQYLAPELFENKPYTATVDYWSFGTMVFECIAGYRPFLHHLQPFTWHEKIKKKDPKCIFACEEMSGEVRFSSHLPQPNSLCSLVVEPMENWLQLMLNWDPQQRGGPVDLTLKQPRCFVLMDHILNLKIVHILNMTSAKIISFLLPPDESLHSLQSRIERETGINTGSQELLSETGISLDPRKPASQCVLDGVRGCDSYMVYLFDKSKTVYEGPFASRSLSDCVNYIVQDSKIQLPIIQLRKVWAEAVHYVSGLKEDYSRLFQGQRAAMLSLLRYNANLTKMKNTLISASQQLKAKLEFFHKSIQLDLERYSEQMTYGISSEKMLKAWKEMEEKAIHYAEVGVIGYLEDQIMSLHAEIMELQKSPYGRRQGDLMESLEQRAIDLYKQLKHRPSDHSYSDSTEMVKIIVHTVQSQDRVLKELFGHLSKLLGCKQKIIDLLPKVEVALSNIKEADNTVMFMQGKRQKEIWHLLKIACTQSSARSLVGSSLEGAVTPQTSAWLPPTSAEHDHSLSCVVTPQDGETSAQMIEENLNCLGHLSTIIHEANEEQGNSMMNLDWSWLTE
From the text: as §3

The subject of assay [3] is GSCs isolated from U87MG cells. The assay can be described thus: Annexin V and 7-AAD staining in GSCs (apoptosis). To be noted: 10 μM, 7 days. It counts as cell-based, human. As to the method:
Dual staining with Annexin V coniugated to fluorescein-isothiocyanate (FITC) and 7-amino-actinomysin (7-AAD) was performed using the commercially available kit (Muse Annexin V and Dead Cell Kit; Merck KGaA, Darmstadt, Germany). U87MG cells or GSCs were treated with DMSO (control), SA16, SA23 or IB35 for 72 h or seven days, respectively. At the end of the treatment periods, the percentages of living, apoptotic and dead cells were acquired and analysed by Muse™ Cell Analyzer as previously described (Daniele, S., et al., Combined inhibition of AKT/mTOR and MDM2 enhances Glioblastoma Multiforme cell apoptosis and differentiation of cancer stem cells. Sci. Rep., 2015. 5.).
It was investigated if the reduction of cell proliferation elicited by the two compounds could be associated to cell apoptosis. […] At the end of treatments, the cells were collected and the degree of phosphatidylserine externalisation was evaluated using the Annexin V protocol, as above described (FIG. 10). The data were expressed as the percentage of apoptotic cells (early-apoptotic in white, late-apoptotic/necrotic in grey) relative to the total number of cells and represented in FIG. 11. […] The significance of the differences was determined with a one-way ANOVA with Bonferroni post-test (*** p<0.001 vs. control).

Sequence of CDK7/cyclin H/MNAT1 (P50613 whole entry): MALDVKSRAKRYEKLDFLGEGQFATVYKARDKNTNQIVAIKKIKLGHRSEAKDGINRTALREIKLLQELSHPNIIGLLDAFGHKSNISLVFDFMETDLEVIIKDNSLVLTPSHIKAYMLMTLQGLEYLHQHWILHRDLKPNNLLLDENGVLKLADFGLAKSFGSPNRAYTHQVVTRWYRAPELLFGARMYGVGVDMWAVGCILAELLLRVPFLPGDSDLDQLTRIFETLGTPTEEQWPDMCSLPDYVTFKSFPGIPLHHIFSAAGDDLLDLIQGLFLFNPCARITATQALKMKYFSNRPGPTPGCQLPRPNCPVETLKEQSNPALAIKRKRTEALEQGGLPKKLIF
Sequence of CDK7/cyclin H/MNAT1 (P51946 whole entry partner): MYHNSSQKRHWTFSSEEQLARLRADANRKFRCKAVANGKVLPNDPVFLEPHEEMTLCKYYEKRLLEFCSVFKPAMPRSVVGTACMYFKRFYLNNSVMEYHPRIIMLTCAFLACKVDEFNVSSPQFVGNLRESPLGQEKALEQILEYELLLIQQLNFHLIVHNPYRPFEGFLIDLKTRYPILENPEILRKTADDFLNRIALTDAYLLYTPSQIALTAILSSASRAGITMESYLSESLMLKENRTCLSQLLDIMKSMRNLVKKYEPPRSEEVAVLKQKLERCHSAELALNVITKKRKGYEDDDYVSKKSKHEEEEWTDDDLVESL
Sequence of CDK7/cyclin H/MNAT1 (P51948 whole entry partner): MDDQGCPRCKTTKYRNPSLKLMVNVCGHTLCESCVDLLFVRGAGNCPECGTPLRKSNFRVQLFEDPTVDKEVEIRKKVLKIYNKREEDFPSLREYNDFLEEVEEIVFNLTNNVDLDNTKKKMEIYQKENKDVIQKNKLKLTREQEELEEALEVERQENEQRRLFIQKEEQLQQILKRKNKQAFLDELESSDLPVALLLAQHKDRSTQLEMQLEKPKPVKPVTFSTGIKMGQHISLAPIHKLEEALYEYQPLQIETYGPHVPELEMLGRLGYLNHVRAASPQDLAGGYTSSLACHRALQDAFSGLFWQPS
Sequence of PIK3CG (p110 gamma) (P48736 whole entry): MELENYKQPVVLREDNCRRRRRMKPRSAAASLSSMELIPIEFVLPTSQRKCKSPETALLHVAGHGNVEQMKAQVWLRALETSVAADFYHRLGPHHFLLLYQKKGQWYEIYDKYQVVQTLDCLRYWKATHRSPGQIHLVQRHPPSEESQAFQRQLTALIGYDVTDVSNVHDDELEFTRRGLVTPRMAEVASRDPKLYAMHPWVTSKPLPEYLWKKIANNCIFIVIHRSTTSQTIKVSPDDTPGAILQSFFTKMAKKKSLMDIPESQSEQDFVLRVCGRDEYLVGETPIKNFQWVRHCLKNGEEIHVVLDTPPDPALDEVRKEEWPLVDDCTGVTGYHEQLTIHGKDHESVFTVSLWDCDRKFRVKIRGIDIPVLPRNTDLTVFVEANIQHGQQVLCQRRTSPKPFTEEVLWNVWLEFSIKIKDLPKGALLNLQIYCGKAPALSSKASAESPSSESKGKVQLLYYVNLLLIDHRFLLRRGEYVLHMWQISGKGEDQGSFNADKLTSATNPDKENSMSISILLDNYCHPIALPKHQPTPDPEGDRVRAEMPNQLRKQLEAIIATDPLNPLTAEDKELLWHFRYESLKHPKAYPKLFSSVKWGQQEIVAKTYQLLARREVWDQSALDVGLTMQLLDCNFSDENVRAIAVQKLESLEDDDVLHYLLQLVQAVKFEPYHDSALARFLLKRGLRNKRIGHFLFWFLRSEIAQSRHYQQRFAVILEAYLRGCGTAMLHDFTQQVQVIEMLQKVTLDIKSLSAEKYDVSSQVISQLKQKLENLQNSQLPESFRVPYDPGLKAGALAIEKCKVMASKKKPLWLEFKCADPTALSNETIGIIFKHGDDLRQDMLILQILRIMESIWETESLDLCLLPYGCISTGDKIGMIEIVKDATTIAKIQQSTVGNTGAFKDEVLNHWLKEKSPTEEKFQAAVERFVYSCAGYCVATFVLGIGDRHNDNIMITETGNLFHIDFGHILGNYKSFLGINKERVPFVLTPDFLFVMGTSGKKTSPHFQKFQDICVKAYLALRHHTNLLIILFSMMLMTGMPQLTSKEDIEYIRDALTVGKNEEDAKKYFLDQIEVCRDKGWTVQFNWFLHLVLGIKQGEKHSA

Turning to `O=C1Nc2ccc(NC(=O)[C@H](NC(=O)c3cccn(Cc4ccc(F)c(F)c4)c3=O)c3ccccc3)cc2/C1=C/c1ncc[nH]1` [SA23, (Z)—(R)—N-(2-((3-((1H-imidazol-2-yl)methylene)-2-oxoindolin-5-yl)amino)-2-oxo-1-phenylethyl)-1-(3,4-difluorobenzyl)-2-oxo-1,2-dihydropyridine-3-carboxamide], the figures for the IC50 (with U87MG cells (read-out: IC50 U87MG); in the assay with U87MG cells (read-out: IC50 U87MG cell proliferation); in assay [1]) were 1170 ± 100 nM, 1170 ± 100 nM and 0.3 ± 0.04 nM, respectively. Also, in assay [1], the “inhibition of GSC proliferation” value is “significant inhibition”.
The inhibition is the drop in the measured response relative to a control, in per cent. As to `O=C(CNC(=O)c1cccn(Cc2ccc(F)c(F)c2)c1=O)Nc1ccc2c(c1)/C(=C/c1cnc[nH]1)C(=O)N2` [IB35, (Z)—N-(2-((3-((1H-imidazol-5-yl)methylene)-2-oxoindolin-5-yl)amino)-2-oxoethyl)-1-(3,4-difluorobenzyl)-2-oxo-1,2-dihydro pyridine-3-carboxamide], in the assay with U87MG cells (24 h, higher effect observed (1 nM-10 μM tested)), the “inhibition of U87MG cell proliferation” value stood at 41%. Besides, the figures for the IC50 (in the assay with U87MG cells (read-out: IC50 U87MG); in assay [1]) were 450 ± 46.2 nM and 3.36 ± 0.4 nM, respectively. In addition, the “inhibition of GSC proliferation” value in assay [1] is recorded as “significant inhibition”. In addition, the inhibition at 0.1 µM on CDK7/cyclin H/MNAT1 (read-out: % Inhibition 1) is 2%; on CDK7/cyclin H/MNAT1 (read-out: % Inhibition 2), -1%; at CDK7/cyclin H/MNAT1 (read-out: % Inhibition Avg) it was 1%; in assay [2] (read-out: % Inhibition 1), 16%; in assay [2] (read-out: % Inhibition 2) it was 24%; in assay [2] (read-out: % Inhibition Avg) it was 20%. Also, the inhibition at 0.1 µM at PIK3CG (p110 gamma) (read-out: % Inhibition 1) is 6%; at PIK3CG (p110 gamma) (read-out: % Inhibition 2), -1%; on PIK3CG (p110 gamma) (read-out: % Inhibition Avg) it was 2%; at CHUK (IKK alpha) (read-out: % Inhibition 1), -2%; at CHUK (IKK alpha) (read-out: % Inhibition 2), 7%; on CHUK (IKK alpha) (read-out: % Inhibition Avg), 3%. In assay [3], the “percentage of total apoptotic cells” value is reported as 38.5±3.9%.
